In publication PMC10748079, “Discovery of Potent Indolyl-Hydrazones as Kinase Inhibitors for Breast Cancer: Synthesis, X-ray Single-Crystal Analysis, and In Vitro and In Vivo Anti-Cancer Activity Evaluation” (Pharmaceuticals, 2023):
“And” between values parts separate entries of the source, which are not always exact repeats. Equal values may be shown once.

Columns and labels:
[1] = system: Solid Ehrlich carcinoma (SEC); assay: In vivo antitumor activity in SEC-bearing mice; design: species or system Swiss albino mice; conditions: IP, 5 mg/kg; for solid tumor mass: SEC control 398.1 mg; for tumor proliferation inhibition (TIR%): TIR% = C − T/C × 100
Method: The Suez Canal University Research Ethics Committee gave the experimental procedure their seal of approval (approval number REC219/2023, Faculty of Science, Suez Canal University). The full, detailed methodology is supported in the Supplementary Materials.
Animals and tumor cell line
Adult female Swiss albino mice purchased from Theodor Bilharzia Research Institute, Giza, Egypt, with an average body weight of (18-23) g was used. Mice were housed under constant conditions of 12 h light/dark cycle in a […], with free access to standard laboratory mice food and water .All procedures related to care and maintenance of the animals were performed according to the international guiding principles for animal research and approved by Faculty of Science, Suez Canal University bioethics and animal ethics committee (Approval […]
Solid Ehrlich carcinoma (SEC) were got from the National Cancer Institute (Cairo University, Egypt). The tumor cell line was proliferated in mice through serial intraperitoneal (I.P.) transplantation of a volume of 0.2 mL physiological saline contains 1 × 10^6 viable cells for 24 h. SEC cells were collected 7 days after I.P. implantation. The harvested cells were diluted with saline to obtain a concentration of 5 × 10^6 viable SEC cells/mL. A volume of 0.2 mL saline contains 1 × 10^6 SEC cells that were I.P. implanted into each normal mouse. SEC cells (1 × 10^6 tumor cells/mouse) were implanted subcutaneously into the right thigh of the hind limb.
The experimental animals were randomly divided into four groups. Group 1 served as the normal saline control (5 mL/kg B.Wt., I.P.). Group 2 served as the SEC control (1 × 10^6 cells/mouse). Group 3 served as the compound-treated group (5 mg/kg B.Wt., I.P.).
Group 4 received the standard anticancer drug of Doxorubicin (DOX) (5 mg/kg BW, I.P.) and is considered as a reference control. Body weight and survival were recorded daily until the 24th day in both treated and control groups. At the end of experiment, the blood of each group was collected under light anesthesia for estimation of hematological and biochemical assays. The anesthetized animals were then sacrificed for evaluation of the antitumor activity and histopathological examination.
It includes tumor volume, weight, and tumor inhibition ration (TIR%). Time interval measurements of tumor volume using digital Vernier caliper (Tricle Brand, Shanghai, […]
China). Measure tumor length and width using clipper and then calculate tumor volume using formulations V = (L x W x W)/2, where V is tumor volume, W is tumor width, L is […]
tumor length. […]

[2] = system: MCF-7 breast cancer cells; assay: MTT cytotoxicity assay; format: cell-based; conditions: for IC50: MCF-7 cells, MTT, 48 h, mean ± SD of three independent values; for fold higher potency than reference drug staurosporine against MCF-7: versus staurosporine
Method: The National Research Institute in Egypt donated the breast cancer (MCF-7) cells, which were collected and cultured in RPMI-1640 medium L-glutamine (Lonza Verviers SPRL, Verviers, Belgium, cat#12-604F). The 10% fetal bovine serum (FBS; Sigma-Aldrich, St. Louis, MO, USA) and 1% penicillin-streptomycin (Lonza, Belgium) were given to each of the two cell lines.
All cells were cultured, following routine tissue culture work, in 5% CO2 humidified at 37 °C. Cells were exposed to compounds at concentrations of 0.01, 0.1, 1, 10, and 100 μM on the second day of culturing. After 48 h, cell viability was evaluated using the MTT solution (Promega, Madison, WI, USA). MTT dye (20 μL) was placed into each well, and the plate was then incubated for three hours. Absorbance was subsequently measured at 570 nm using the ELISA microplate reader (BIO-RAD, model iMark, Tokyo, Japan), and the percentage of cell viability was calculated, compared to control, as (mean absorbance of tested compound)/(mean absorbance in control) × 100. Finally, IC50 values were found using the nonlinear dose–response sigmoidal curve in GraphPad Prism 7 [39].

MCF-7 cells [3] = assay: DNA content flow cytometry (cell cycle analysis); format: cell-based; conditions: MCF-7, treated at IC50, 48 h
Method: (§1) Annexin V/PI staining and cell cycle analysis […] MCF-7 cells were added to 6-well culture plates, which were then placed in the incubator for the night. […] Following that, PBS was rinsed with ice-cold water before cells and media supernatants were gathered. The cells were then treated with “Annexin V-FITC solution (1:100) and propidium iodide (PI)” at a concentration of 10 µg/mL for 30 min in the dark after being suspended in […] of annexin-binding buffer solution, which was composed of 25 mM CaCl2, 1.4 M NaCl, and 0.1 M Hepes/NaOH, pH 7.4. Then, labeled cells were collected using the Cytoflex FACS system. The data were assessed using the cytExpert program.

MCF-7 cells [4] = assay: Annexin V/PI staining flow cytometry (apoptosis/necrosis); format: cell-based; conditions: MCF-7, treated at IC50, 48 h
Method: as §1

MCF-7 cells [5] = assay: Wound-healing assay (scratch assay); format: cell-based; conditions: MCF-7, treated at IC50 of compound, 48 h, mean ± SD
Method: The wound-healing test was mentioned in previous research. Six-well plates containing starvation media were filled with four […] MCF-7 cells per well, and the plates were subsequently incubated at 37 °C for the whole night. A sterile 1 mL pipette tip was used to generate a scratch of the cell monolayer once it was established the following day that the cells had adhered to the well and that cell confluence had reached 90%. Starvation media was used to clean the cells before they were removed from the plates. […] After 48 h, the medium was immediately changed to PBS, the wound gap was examined, and cells—both control and treated—were captured on camera with a digital camera attached to an Olympus microscope. The region where the wound closes was measured.

CDK2 = biological target: T1, CDK2 (Homo sapiens, UniProt P24941); assay: Kinase inhibitory assay (ELISA kit); format: biochemical; conditions: average of three independent replicates; read-out: IC50 ± SD CDK2
T1 construct: purchased Bioscience, USA #79599
Method: (§2) The following calculation was used to compute the proportion that chemicals inhibited autophosphorylation: […]. Using the GraphPad prism7 program, the IC50 was calculated using the curves of percentage inhibition of five concentrations of each chemical.

AKT-1 = biological target: T2, AKT-1 (Homo sapiens, UniProt P31749); assay: Kinase inhibitory assay (ELISA kit); format: biochemical; conditions: average of three independent replicates; read-out: IC50 ± SD AKT-1
T2 construct: purchased Bioscience, USA #78038
Method: as §2

EGFR = biological target: T3, EGFR (Homo sapiens, UniProt P00533); assay: Kinase inhibitory assay (ELISA kit); format: biochemical; conditions: average of three independent replicates; read-out: IC50 ± SD EGFR
T3 construct: purchased Bioscience, USA #40321
Method: as §2

PI3K-β = biological target: T4, PI3K-β (Homo sapiens, UniProt P42338); assay: Kinase inhibitory assay (ELISA kit); format: biochemical; conditions: average of three independent replicates; read-out: IC50 ± SD PI3K-β
T4 construct: purchased Bioscience, USA #79802
Method: as §2

PI3K-α = biological target: T5, PI3K-α (Homo sapiens, UniProt P42336); assay: Kinase inhibitory assay (ELISA kit); format: biochemical
T5 construct: purchased Bioscience, USA #40639
Method: as §2

PI3K-δ = biological target: T6, PI3K-δ (Homo sapiens, UniProt O00329); assay: Kinase inhibitory assay (ELISA kit); format: biochemical; conditions: average of three independent replicates; read-out: IC50 ± SD PI3K-δ
T6 construct: purchased Bioscience, USA #40628
Method: EGFR (catalog #40321), CDK2 (catalog #79599), AKT (catalog #78038), PI3K-α (catalog #40639), β (catalog #79802), and δ (catalog #40628) kinase inhibitions were conducted using an ELISA kit in accordance with the manufacturer instructions from Bioscience, USA. To assess the inhibitory potency of compound 5 against the kinase activity, kinase inhibitory tests were carried out. The following calculation was used to compute the proportion that chemicals inhibited autophosphorylation: […]. Using the GraphPad prism7 program, the IC50 was calculated using the curves of percentage inhibition of five concentrations of each chemical.

T5 sequence (P42336 whole entry): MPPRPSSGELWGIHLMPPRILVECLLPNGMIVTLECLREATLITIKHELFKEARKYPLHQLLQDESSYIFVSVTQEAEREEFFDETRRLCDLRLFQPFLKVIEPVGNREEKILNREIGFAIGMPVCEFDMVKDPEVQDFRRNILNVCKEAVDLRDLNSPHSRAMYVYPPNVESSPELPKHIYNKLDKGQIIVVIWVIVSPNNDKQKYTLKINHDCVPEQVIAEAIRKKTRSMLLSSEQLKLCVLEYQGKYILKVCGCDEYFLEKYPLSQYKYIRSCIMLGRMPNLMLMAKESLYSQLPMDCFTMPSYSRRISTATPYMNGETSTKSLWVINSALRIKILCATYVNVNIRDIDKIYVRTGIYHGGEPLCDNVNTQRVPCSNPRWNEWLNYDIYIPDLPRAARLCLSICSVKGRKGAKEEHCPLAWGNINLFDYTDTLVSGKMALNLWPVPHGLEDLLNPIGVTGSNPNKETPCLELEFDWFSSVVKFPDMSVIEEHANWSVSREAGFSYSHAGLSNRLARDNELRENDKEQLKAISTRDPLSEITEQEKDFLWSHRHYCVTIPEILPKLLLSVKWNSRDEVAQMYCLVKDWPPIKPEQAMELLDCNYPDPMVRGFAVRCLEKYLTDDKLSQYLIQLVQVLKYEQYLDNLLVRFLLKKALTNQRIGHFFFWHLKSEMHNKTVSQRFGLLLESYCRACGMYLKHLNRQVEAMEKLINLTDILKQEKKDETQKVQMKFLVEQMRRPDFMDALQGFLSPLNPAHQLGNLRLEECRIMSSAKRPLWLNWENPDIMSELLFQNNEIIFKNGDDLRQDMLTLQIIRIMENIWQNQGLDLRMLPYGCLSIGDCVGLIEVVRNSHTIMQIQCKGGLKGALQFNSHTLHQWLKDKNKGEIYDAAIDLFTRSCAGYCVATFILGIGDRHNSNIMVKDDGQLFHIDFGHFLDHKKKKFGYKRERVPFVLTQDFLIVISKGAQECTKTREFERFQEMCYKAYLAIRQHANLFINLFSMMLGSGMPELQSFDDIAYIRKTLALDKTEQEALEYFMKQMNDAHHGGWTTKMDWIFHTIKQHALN
T5 sequence (P27986 whole entry partner): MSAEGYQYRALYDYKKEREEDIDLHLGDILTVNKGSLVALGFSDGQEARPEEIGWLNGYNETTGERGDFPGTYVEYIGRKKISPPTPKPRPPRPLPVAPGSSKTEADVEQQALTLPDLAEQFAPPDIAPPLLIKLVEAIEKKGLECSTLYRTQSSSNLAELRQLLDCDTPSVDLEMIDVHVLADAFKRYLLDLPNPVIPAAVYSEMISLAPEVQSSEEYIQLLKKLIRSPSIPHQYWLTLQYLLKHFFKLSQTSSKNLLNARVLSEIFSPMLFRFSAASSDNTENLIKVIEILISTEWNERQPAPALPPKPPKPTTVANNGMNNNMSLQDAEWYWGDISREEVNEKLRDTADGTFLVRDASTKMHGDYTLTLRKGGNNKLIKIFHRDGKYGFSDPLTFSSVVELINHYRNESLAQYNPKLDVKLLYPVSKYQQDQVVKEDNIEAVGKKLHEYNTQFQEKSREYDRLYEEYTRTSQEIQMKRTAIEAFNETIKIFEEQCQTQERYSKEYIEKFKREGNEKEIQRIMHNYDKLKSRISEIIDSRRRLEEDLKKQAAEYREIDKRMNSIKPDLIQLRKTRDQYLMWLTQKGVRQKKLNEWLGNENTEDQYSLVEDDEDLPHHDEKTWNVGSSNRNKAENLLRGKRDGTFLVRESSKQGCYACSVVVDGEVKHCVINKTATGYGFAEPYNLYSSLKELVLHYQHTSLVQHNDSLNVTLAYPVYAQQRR
T6 sequence (O00329 whole entry): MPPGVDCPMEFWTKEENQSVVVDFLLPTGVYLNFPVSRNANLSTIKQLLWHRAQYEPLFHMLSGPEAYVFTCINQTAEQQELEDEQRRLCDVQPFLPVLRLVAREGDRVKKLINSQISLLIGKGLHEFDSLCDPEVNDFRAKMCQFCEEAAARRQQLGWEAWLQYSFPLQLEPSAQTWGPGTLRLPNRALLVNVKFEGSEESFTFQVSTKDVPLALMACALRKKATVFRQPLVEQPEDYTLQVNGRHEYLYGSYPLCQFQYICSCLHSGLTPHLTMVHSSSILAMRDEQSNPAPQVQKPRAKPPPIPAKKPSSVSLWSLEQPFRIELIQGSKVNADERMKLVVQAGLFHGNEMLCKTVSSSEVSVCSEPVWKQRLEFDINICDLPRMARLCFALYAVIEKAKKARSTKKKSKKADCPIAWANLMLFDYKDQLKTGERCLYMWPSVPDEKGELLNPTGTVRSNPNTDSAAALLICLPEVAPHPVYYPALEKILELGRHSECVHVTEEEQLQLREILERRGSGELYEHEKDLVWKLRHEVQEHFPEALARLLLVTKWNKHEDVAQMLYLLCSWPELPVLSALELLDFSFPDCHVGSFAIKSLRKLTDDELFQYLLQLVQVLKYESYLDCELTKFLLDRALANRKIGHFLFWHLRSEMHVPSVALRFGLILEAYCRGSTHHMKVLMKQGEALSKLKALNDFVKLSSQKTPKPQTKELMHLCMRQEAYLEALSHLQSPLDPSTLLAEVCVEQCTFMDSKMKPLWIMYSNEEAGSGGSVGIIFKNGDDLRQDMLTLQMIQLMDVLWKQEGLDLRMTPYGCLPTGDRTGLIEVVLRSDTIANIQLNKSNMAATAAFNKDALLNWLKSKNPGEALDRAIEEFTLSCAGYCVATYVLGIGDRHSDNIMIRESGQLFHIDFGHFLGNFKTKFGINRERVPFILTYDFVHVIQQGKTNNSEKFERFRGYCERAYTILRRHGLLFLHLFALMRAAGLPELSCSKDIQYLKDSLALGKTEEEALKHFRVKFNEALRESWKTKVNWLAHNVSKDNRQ
T6 sequence (P27986 whole entry partner): as the sequence (P27986 whole entry partner) above
T3 sequence (P00533 25-1210): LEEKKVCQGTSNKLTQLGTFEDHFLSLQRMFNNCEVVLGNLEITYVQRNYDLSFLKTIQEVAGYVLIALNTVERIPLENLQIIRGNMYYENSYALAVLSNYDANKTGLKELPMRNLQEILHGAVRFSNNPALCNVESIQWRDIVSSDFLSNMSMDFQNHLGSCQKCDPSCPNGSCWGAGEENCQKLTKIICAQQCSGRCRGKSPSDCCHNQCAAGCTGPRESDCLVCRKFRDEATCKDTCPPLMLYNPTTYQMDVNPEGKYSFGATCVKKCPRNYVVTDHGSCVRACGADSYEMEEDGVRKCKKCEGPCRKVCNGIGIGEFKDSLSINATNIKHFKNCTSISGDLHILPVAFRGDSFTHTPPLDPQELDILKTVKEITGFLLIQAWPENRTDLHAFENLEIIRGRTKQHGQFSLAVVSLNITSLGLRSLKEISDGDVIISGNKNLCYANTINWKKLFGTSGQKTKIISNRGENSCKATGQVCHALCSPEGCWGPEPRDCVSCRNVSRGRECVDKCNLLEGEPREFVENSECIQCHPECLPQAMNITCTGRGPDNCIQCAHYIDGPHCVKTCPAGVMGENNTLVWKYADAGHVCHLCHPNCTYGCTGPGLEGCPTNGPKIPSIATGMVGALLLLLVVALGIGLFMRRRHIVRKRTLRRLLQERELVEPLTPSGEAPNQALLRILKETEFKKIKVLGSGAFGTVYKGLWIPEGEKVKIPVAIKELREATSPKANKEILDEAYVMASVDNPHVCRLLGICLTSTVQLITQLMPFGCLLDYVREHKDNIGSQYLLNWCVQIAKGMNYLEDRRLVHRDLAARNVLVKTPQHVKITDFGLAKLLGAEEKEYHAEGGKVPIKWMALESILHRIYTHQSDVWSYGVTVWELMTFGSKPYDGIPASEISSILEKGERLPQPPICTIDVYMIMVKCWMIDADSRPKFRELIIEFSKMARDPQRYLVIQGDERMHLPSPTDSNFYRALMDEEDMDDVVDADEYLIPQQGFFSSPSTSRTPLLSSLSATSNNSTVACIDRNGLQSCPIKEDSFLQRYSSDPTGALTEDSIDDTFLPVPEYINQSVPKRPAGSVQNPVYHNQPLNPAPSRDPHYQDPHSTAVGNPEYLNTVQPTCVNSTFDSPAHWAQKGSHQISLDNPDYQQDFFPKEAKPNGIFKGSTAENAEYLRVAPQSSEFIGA
T2 sequence (P31749 whole entry): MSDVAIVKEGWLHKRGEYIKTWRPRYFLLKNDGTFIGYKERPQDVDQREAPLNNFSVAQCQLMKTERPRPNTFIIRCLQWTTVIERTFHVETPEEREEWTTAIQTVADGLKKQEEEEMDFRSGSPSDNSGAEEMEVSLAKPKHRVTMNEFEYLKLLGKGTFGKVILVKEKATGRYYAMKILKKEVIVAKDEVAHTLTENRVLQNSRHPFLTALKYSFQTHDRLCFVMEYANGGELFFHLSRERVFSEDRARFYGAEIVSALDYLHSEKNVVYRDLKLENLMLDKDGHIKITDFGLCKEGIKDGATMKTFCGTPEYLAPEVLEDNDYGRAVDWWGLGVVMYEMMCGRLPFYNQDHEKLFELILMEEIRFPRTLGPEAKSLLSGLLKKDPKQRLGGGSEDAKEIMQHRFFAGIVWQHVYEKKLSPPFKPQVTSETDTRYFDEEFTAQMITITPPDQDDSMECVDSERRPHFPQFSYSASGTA

## O=c1[nH]cc(F)c(=O)[nH]1 [Compound 5-FU, 5-FU, reference compound]
[1]
  tumor volume: 43.7 mm^3
  solid tumor mass: 110 mg
  tumor proliferation inhibition (TIR%): 58.8%

## CCOC(=O)c1[nH]c2ccccc2c1/C=N/NC(N)=O [Compound 6, Ethyl (E)-3-((2-carbamoylhydrazineylidene)methyl)-1H-indole-2-carboxylate]
other
  melting point: 285 to 286 °C
[2]; Homo sapiens, MCF7, 48 h
  IC50: 10.2 ± 0.53 µM
[2]
  IC50: 9.42 ± 0.57 µM

## CCOC(=O)c1[nH]c2ccccc2c1/C=N/N=C/c1c(C(=O)OCC)[nH]c2ccccc12 [Compound 5, Diethyl 3,3’-((1E,1’E)-hydrazine-1,2-diylidenebis(methaneylylidene))bis(1H-indole-2-carboxylate)]
MCF-7 cells [3]
  DNA Content %G0-G1: 39.07%
  DNA Content %G2/M: 4.74%
  DNA Content %Pre-G1: 39.26%
  DNA Content %S: 56.2% and 56.19%
[1]
  tumor volume: 56.4 mm^3
  solid tumor mass: 126.5 mg
  tumor proliferation inhibition (TIR%): 46.9%
MCF-7 cells [4]
  Annexin V/PI Staining Early (early apoptosis): 7.11%
  Annexin V/PI Staining Late (late apoptosis): 22.24%
  Annexin V/PI Staining Necrosis: 9.91%
  Annexin V/PI Staining Total (total cell death): 39.26%
  apoptosis (apoptosis ratio, early + late): 29.35%
MCF-7 cells [5]
  %Closure, MCF-7 (wound closure): 48.88% and 48.8%
CDK2
  IC50: 0.156 ± 0.01 µM
AKT-1
  IC50: 0.602 ± 0.03 µM
EGFR
  IC50: 0.058 ± 0.029 µM
PI3K-β
  IC50: 2.27 ± 0.11 µM
PI3K-α; average of three independent replicates, read-out: IC50 ± SD PI3K-α
  IC50: 1.73 ± 0.1 µM
PI3K-α; versus LY294002
  fold higher potency than LY294002 against PI3K-α: 4.92 fold
[2]; Homo sapiens, MCF7, 48 h
  IC50: 2.73 ± 0.14 µM
[2]
  fold higher potency than reference drug staurosporine against MCF-7: 3 fold
PI3K-δ
  IC50: 2.68 ± 0.15 µM

## CCOC(=O)c1[nH]c2ccccc2c1/C=N/Nc1ccc([N+](=O)[O-])cc1 [Compound 10, Ethyl (E)-3-((2-(4-nitrophenyl)hydrazineylidene)methyl)-1H-indole-2-carboxylate]
other
  melting point: 270 to 271 °C
[2]; Homo sapiens, MCF7, 48 h
  IC50: 25.4 ± 1.54 µM

## CCOC(=O)c1[nH]c2ccccc2c1/C=N/n1c(-c2cc3ccccc3[nH]2)n[nH]c1=S [Compound 8, Ethyl (E)-3-(((3-(1H-indol-2-yl)-5-thioxo-1,5-dihydro-4H-1,2,4-triazol-4-yl)imino)methyl)-1H-indole-2-carboxylate]
MCF-7 cells [3]
  DNA Content %G0-G1: 47.10%
  DNA Content %G2/M: 6.57%
  DNA Content %Pre-G1: 24.38%
  DNA Content %S: 46.31%
MCF-7 cells [4]
  Annexin V/PI Staining Early (early apoptosis): 2.27%
  Annexin V/PI Staining Late (late apoptosis): 13.45%
  Annexin V/PI Staining Necrosis: 8.66%
  Annexin V/PI Staining Total (total cell death): 24.4% and 24.38%
  apoptosis (apoptosis ratio, early + late): 15.72%
MCF-7 cells [5]
  %Closure, MCF-7 (wound closure): 60.74% and 60.7%
[2]; Homo sapiens, MCF7, 48 h
  IC50: 4.38 ± 0.23 µM
[2]
  fold higher potency than reference drug staurosporine against MCF-7: up to 1.9 fold

## O=c1cc(N2CCOCC2)oc2c(-c3ccccc3)cccc12 [LY294002, reference compound]
PI3K-δ
  IC50: 0.85 ± 0.05 µM

## CCOC(=O)c1[nH]c2ccccc2c1/C=N/NC(N)=S [Compound 3, Ethyl (E)-3-((2-carbamothioylhydrazineylidene)methyl)-1H-indole-2-carboxylate]
other
  melting point: 229 to 230 °C
[2]; Homo sapiens, MCF7, 48 h
  IC50: 9.42 ± 0.57 µM
[2]
  IC50: 10.2 ± 0.53 µM

## CCOC(=O)c1[nH]c2ccccc2c1C=O [Compound 1, ethyl 3-formyl-1H-indole-2-carboxylate]
[2]; Homo sapiens, MCF7, 48 h
  IC50: 19.7 ± 2.31 µM

## CCOC(=O)c1[nH]c2ccccc2c1/C=N/Nc1ccc([N+](=O)[O-])cc1[N+](=O)[O-] [Compound 12, Ethyl (E)-3-((2-(2,4-dinitrophenyl)hydrazineylidene)methyl)-1H-indole-2-carboxylate]
MCF-7 cells [3]
  DNA Content %G0-G1: 59.33%
  DNA Content %G2/M: 2.55%
  DNA Content %Pre-G1: 37.05%
  DNA Content %S: 38.10%
MCF-7 cells [4]
  Annexin V/PI Staining Early (early apoptosis): 4.59%
  Annexin V/PI Staining Late (late apoptosis): 17.44%
  Annexin V/PI Staining Necrosis: 15.02%
  Annexin V/PI Staining Total (total cell death): 37% and 37.05%
MCF-7 cells [5]
  %Closure, MCF-7 (wound closure): 51.85% and 51.8%
[2]; Homo sapiens, MCF7
  IC50: 7.03 ± 0.37 µM
